From patent US10301284B2, “Therapeutic inhibitory compounds” (LifeSci Pharmaceuticals, Inc., priority 2016, dated 2019)
Like-named read-outs stand apart in the source and are kept apart here.

How the values were obtained:
[1] = Pharmacokinetic evaluation, oral exposure in rats; type: in vivo; settings: rat; male Sprague-Dawley rats, single oral dose 10 mg/kg via oral gavage, plasma; read-out: AUC
Summary of the method: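 Male Sprague-Dawley rats dosed once at 10 mg/kg by oral gavage (2 mg/mL formulation). Jugular blood drawn pre-dose and from 5 min to 24 h post-dose; plasma compound levels measured by LC/MS/MS.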

[2] = biological target: T1, human Plasma Kallikrein (Homo sapiens (Human), UniProt P03952); test: Human whole blood kallikrein inhibition (ellagic acid-activated human plasma, Z-FR-2-AMC substrate); type: biochemical
Summary of the method: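 Platelet-depleted human plasma was activated with ellagic acid and diluted in 50 mM Tris-HCl pH 7.2, 150 mM NaCl, 0.01% Triton X-100, then preincubated 15 min at 37 °C. Compounds (0.076 nM–20 μM, duplicates) were added for 5 min at 37 °C. Z-FR-2-AMC (40 μM final) was read kinetically at ex 330/em 440 nm for 60 min, and IC50 was taken from a variable-slope fit.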

[3] = biological target: T1, human Plasma Kallikrein; test: In vitro enzyme inhibition of human plasma kallikrein (Pro-Phe-Arg-AMC cleavage); type: biochemical; settings: human plasma kallikrein, PFR-AMC substrate, 37° C.; read-out: hPK IC50
Summary of the method: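 Human plasma kallikrein preincubated 5 min at 37 °C with compound in 50 mM Tris-HCl pH 7.5, 150 mM NaCl, 0.01% Triton X-100. Reaction started with Pro-Phe-Arg-AMC, fluorescence read every 43 s for 1 h at 37 °C. IC50 from highest mean velocity over 20 reads (~15 min).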

[4] = human plasma activated with ellagic acid, Z-FR-2-AMC 40 μM, 37° C., read-out: HWB EC50

T1 sequence (P03952 391-638 limits assumed): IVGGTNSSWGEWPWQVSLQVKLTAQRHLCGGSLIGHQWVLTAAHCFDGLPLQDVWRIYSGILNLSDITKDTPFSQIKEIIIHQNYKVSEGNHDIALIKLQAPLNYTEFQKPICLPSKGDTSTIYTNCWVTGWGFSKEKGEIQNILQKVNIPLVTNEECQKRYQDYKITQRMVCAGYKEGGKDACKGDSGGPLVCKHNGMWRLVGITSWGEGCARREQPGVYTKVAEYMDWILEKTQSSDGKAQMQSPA
T1 sequence (P03952 20-390 partner limits assumed): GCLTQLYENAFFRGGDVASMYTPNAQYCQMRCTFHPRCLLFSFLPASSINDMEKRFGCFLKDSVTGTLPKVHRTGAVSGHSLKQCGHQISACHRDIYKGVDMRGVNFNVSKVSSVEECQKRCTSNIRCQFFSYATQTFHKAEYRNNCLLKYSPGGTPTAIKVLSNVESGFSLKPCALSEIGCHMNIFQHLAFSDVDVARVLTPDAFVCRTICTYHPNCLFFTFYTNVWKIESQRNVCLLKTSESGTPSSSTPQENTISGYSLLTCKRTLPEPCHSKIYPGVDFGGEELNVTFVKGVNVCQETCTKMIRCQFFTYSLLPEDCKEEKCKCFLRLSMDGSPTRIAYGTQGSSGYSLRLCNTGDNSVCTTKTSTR

SMILES	AUC [1] [ng·h/mL]	EC50 [2, 4] [nM]	IC50 [3] [nM]	EC50 [2] [nM]
Cc1cc(N)nc(C)c1CNC(=O)c1ncc(Cc2ccc3ncc(Cl)cc3c2)o1 [Example 31, N-((6-amino-2,4-dimethylpyridin-3-yl)methyl)-5-((3-chloroquinolin-6-yl)methyl)oxazole-2-carboxamide]	1000 to 10000	< 100	< 100	–
Cc1nc(N)ccc1CNC(=O)c1nn(Cc2ccc3ncc(Cl)cc3c2)c2ccc(=O)[nH]c12 [Example 139, N-((6-amino-2-methylpyridin-3-yl)methyl)-1-((3-chloroquinolin-6-yl)methyl)-5-oxo-4,5-dihydro-1H-pyrazolo[4,3-b]pyridine-3-carboxamide]	100 to 1000	–	< 100	< 100
Cc1cc(N)nc(C)c1CNC(=O)c1noc(Cc2ccc3ncc(Cl)cc3c2)n1 [Example 7, N-((6-amino-2,4-dimethylpyridin-3-yl)methyl)-5-((3-chloroquinolin-6-yl)methyl)-1,2,4-oxadiazole-3-carboxamide]	1000 to 10000	< 100	< 100	–
Cc1cc(N)nc(C)c1CNC(=O)c1oc(Cc2ccc3ncc(Cl)cc3c2)nc1C(F)(F)F [Example 37, N-((6-amino-2,4-dimethylpyridin-3-yl)methyl)-2-((3-chloroquinolin-6-yl)methyl)-4-(trifluoromethyl)oxazole-5-carboxamide]	100 to 1000	< 100	< 100	–
Cc1cnc2c(C#N)cc(Cn3cc(C(=O)NCc4c(C)cc(N)nc4C)c(C#N)n3)cc2c1 [Example 62, N-((6-amino-2,4-dimethylpyridin-3-yl)methyl)-3-cyano-1-((8-cyano-3-methylquinolin-6-yl)methyl)-1H-pyrazole-4-carboxamide]	< 100	< 100	< 100	–
Cc1cc(N)nc(C)c1CNC(=O)c1nn(Cc2ccc3ncc(Cl)cc3c2)c2cncc(C#N)c12 [Example 129, N-((6-amino-2,4-dimethylpyridin-3-yl)methyl)-1-((3-chloroquinolin-6-yl)methyl)-4-cyano-1H-pyrazolo[3,4-c]pyridine-3-carboxamide]	< 100	–	< 100	< 100
Cc1cnc2ccc(Cn3cc(C(=O)NCc4c(C)cc(N)nc4C)c(C#N)n3)cc2c1 [Example 81, N-((6-amino-2,4-dimethylpyridin-3-yl)methyl)-3-cyano-1-((3-methylquinolin-6-yl)methyl)-1H-pyrazole-4-carboxamide]	100 to 1000	< 100	< 100	–
Cc1cc(N)nc(C)c1CNC(=O)c1nc(Cc2ccc3ncc(Cl)cc3c2)no1 [Example 6, N-((6-amino-2,4-dimethylpyridin-3-yl)methyl)-3-((3-chloroquinolin-6-yl)methyl)-1,2,4-oxadiazole-5-carboxamide]	100 to 1000	< 100	< 100	–
